Assay results published in patent US5025036A, “Catechol carboxylic acids” (Hoffmann-La Roche Inc., priority 1989, dated 1991).

Legend:
Carrageenan pleurisy = test: Carrageenan Pleurisy Test (In Vivo); set-up: species or system male Lewis rats; conditions: Rattus norvegicus, po, read-out: Rat Carrageenan Pleurisy % Inhib. of Exudate Volume; for inhibition in vivo at 100 mg/kg: at 100 mg/kg p.o
Method: The animals utilized in these studies were male Lewis rats (Charles River Breeding Laboratories) weighing between 230-250 g. […] At 5 or 24 hours after CG injection, the rats were killed by decapitation, exsanguinated, and the pleural cavity exposed by cutting the ribs on both sides of the sternum. The exudate fluid was removed from the pleural cavity with disposable plastic pipettes and its volume quantitated. The pleural cavity was then washed once with phosphate buffered saline containing fetal bovine serum (1:1) and the washings combined with the exudate. The total number of cells in the pleural cavity was quantitated using a Coulter Counter (Model ZM) adjusted to exclude any contaminating RBC. (Published in "Plant Flavonoids in Biology & Medicine: Biochemical, Pharmacological and Structure-Activity Relationships" p. 231-242 (1986) Alan R. Liss, Inc.)

[1] = Rat In Vivo Model of Myocardial Ischemia (free radical generator infusion); set-up: species or system male spontaneously hypertensive rats; conditions: for Rat Ischemia Model % Infarction: percent of left ventricle infarcted of the animals with an infarct
Method: In this preparation a free radical generating (FRG) system consisting of purine (2.3 mM), xanthine oxidase (0.02 U/ml) and iron loaded transferring (0.6 μM) complex is infused into the carotid artery near the ostium of the coronary artery in spontaneously hypertensive rats. Blood is withdrawn before and 24 hours after the FRG challenge for measuring the isoenzymes of lactic acid dehydrogenase (LDH1 :LDH2). An increase in LDH1 :LDH2 ratio reflects cell damage to the myocardium. The electrocardiogram is also taken before and 24 hours after the FRG infusion. At the end of the experiment the heart is removed, sliced in a breadloaf fashion, and stained with triphenyltetrazolium chloride to determine infarct size. A drug or vehicle is administered intravenously 10-30 minutes before the FRG challenge. A drug is considered active if there is no elevation of the LDH1 :LDH2 ratio, no ECG abnormalities and no histologic evidence of an infarction.
Male spontaneously hypertensive rats (280-320 g) from Taconic Farms, were lightly anesthetized with sodium pentobarbital (30-50 mg/kg, i.p.). […] A catheter of PE 50 tubing was inserted into the right common carotid artery to a position proximal to the ostia of the coronary arteries and used to sample blood and infuse the free radical generator (FRG) system. A second catheter of PE 10 tubing was inserted into the left jugular vein to administer drugs. The infusion system for the FRG consisted of a double syringe infusion pump, Sage Model 351, with one syringe containing xanthine oxidase (0.01 units/ml) in a HEPES (0.05M) buffer and the other syringe containing purine (2.3 mM) plus Fe^3+ loaded transferring (0.06 μM) in a HEPES (0.05M) buffer. The FRG infused separately mixes simultaneously near the ostia of the coronary arteries. This infusion was delivered at a rate of 0.03 ml/minute for a total infusion time of 10 minutes. The drugs were infused over a one minute period in a 0.9% saline vehicle.
Standard Lead II ECG was monitored continuously on a Hewlett-Packard 7758A recorder prior to treatment, throughout the FRG infusion and 10 minutes post infusion. Catheters were removed and animals were allowed to recover and fed standard rat chow and water ad libitum. 24 hours following the FRG infusion, animals were reanesthetized with sodium pentobarbital (30-50 mg/kg, i.p.) and an ECG was obtained. Blood samples were taken prior to and after the FRG infusion and at the conclusion of the experiment. These samples were centrifuged and assayed for total lactate dehydrogenase (LDH) and lactate dehydrogenase isoenzymes (LDH1 :LDH2), using electrophoresis.
The animals were sacrificed, the hearts rapidly excised, and washed free of blood and sectioned. The left ventricle was weighed and stored in a Revco® freezer at -70° C. The left ventricle was sliced into 2 mm-thick rings, incubated in a 1% triphenyltetrazolium chloride solution for 20 minutes, and then fixed in a 10% formalin solution. Infarcted areas were measured and quantitated as a percentage of the total left ventricular volume.

ear edema = test: Mouse Ear Edema Test (In Vivo), arachidonic acid; set-up: species or system CD-1 male mice; conditions: topical, 1 h, at 1 mg topically
From the text: Invest. Dermatol. 80:48 (1983) and Hames, Opas and Bonney, "Arachidonic Acid Metabolites in Mouse Ear Edema" Advances in Inflammation Research, 11:57 (1986). […] CD-1 male mice weighing 15 to 25 g were employed, and they were designated as follows: (1) Control Group, in which no arachidonic acid or test compound was to be applied, (2) Arachidonic Acid-Treated Group, in which no test compound was to be applied, and (3) Treated Group, in which the test compound was to be applied first, followed by the application of arachidonic acid. In the case of the Group (3) animals, the test compound, dissolved in acetone, was applied to the dorsal surface of the right ear of the mouse with a 25-microliter pipettor, with the dose of the test compound being varied. After 0.5 hours in some cases and 4 hours in others, the arachidonic acid was topically applied in the same manner as above to the pretreated ear areas. In each case of arachidonic acid application, an amount of 0.5 mg dissolved in 25 microliters of acetone was used. After 1 hour, the mice were sacrificed by carbon dioxide inhalation. A 6 mm-diameter standard biopsy punch was used to obtain a uniform tissue sample from the ear of each mouse so treated, and the tissue samples were weighed to the nearest 0.1 mg. The percent inhibition of ear edema formation was calculated as follows: [formula]

[2] = system: myeloperoxidase accumulation (acetic acid-induced colitis); test: Acetic Acid-Induced Colitis in Rats, In Vivo; set-up: species or system male rats (Sprague-Dawley)
From the text: The rat acetic acid-induced colitis bioassay has been described by J. E. Krawisz, et al. in Amer. J. Proc. Gastro. Col. Rec. Surg. 31: 11-18 (1980), and by P. Sharon and W. F. Stenson in Gastroenterolgy 88: 55-63 (1985) and 86: 453-460 (1984). Acetic acid-induced colitis is characterized by the movement of inflammatory cells into the colon, with the number of such cells in the mucosa being measured by the activity of myeloperoxidase, a marker enzyme for these cells. Positive desirable activity is indicated by a reduction in the high levels of myeloperoxidase caused by acetic acid. Male rats (Sprague-Dawley), weighing 150 to 300 g, were pretreated twice daily for two days with either the vehicle (water, or dimethylsulfoxide) or the test inhibitor compound suspended in water or dissolved in dimethylsulfoxide and orally administered. On the third day, the animals were dosed the same as on the previous two days, anesthetized with metofane, and 2 ml of 2.5% acetic acid was injected by syringe into the colonic lumen, followed immediately by 3 ml of air and a rinse consisting of 3 ml of phosphate-buffered saline (the acetic acid is present in the lumen for a sufficient period to cause inflammation without producing severe necrosis or irreversible damage). The animals were administered a second dose of the test compound in the same amount about 16 hours later. 24 hours after the acetic acid treatment, the animals were sacrificed, the colonic mucosa was surgically removed and homogenized in an aqueous buffer at pH 6 with a Tissumizer or similar device and myeloperoxidase was measured in the homogenate using o-phenylenediamine as a chromagen, as described by A. Voller, D. E. Bidwell and A. Bartlett in The Enzyme Linked Immunosorbent Assay (ELISA), Zoological Soc., London, 1979, pages 29-30. Control animals were pretreated with the vehicle and saline in place of acetic acid.

| SMILES | inhibition in vivo at 100 mg/kg (Carrageenan pleurisy) | Rat Ischemia Model Infarcts/Total ([1]; 10 mg/kg iv) | Rat Ischemia Model % Infarction ([1]; 10 mg/kg iv) | inhibition in vivo at 1 mg (ear edema) | Rat Acetic Acid Colitis Model % Inhib. of Myeloperoxidase Accumulation ([2]; 1 mg/kg p.o) | Rat Acetic Acid Colitis Model % Inhib. of Myeloperoxidase Accumulation ([2]; 3 mg/kg p.o) | Rat Acetic Acid Colitis Model % Inhib. of Myeloperoxidase Accumulation ([2]; 10 mg/kg p.o) | Rat Acetic Acid Colitis Model % Inhib. of Myeloperoxidase Accumulation ([2]; 30 mg/kg p.o) | Rat Ischemia Model Infarcts/Total ([1]; 5 mg/kg iv) | Rat Ischemia Model % Infarction ([1]; 5 mg/kg iv) | Rat Acetic Acid Colitis Model % Inhib. of Myeloperoxidase Accumulation ([2]; 100 mg/kg p.o) | inhibition in vivo at 50 mg/kg (Carrageenan pleurisy; at 50 mg/kg p.o) |
| --- | --- | --- | --- | --- | --- | --- | --- | --- | --- | --- | --- | --- |
| CCCc1c(OCCCCCCc2cccc(O)c2O)ccc(C(C)=O)c1O [1-[2-hydroxy-4-[6-(2,3-dihydroxyphenyl)hexyloxy]-3-propylphenyl]ethanone] | 51% | 4/4 | 24% | 21% |  |  |  |  |  |  |  |  |
| O=C(O)c1ccc(OCCCCCCc2cccc(O)c2O)cc1O [4-[6-(2,3-Dihydroxyphenyl)hexyloxy]-2-hydroxybenzoic acid] | 0% | 3/5 | 10% | 50% | 82 ± 9% | 81 ± 15% |  |  |  |  |  |  |
| O=C(O)c1ccc(OCCCCCCc2cccc(O)c2O)cc1 [4-[6-(2,3-Dihydroxyphenyl)hexyloxy]benzoic acid] | 46% | 2/5 | 19% | 48% |  | 79 ± 8% | 89 ± 28% |  |  |  |  |  |
| CCCc1c(OCCCCCCc2cccc(O)c2O)ccc(C(=O)OCC)c1O [4-[6-(2,3-Dihydroxyphenyl)hexyloxy]-2-hydroxy-3-propylbenzoic acid ethyl ester] | 44% |  |  | 64% | 40 ± 9% | 67 ± 11% |  |  |  |  |  |  |
| CCCc1c(OCCCCCCCCCCc2cccc(O)c2O)ccc(C(=O)O)c1O [4-[10-(2,3-dihydroxyphenyl)decyloxy]-2-hydroxy-3-propylbenzoic acid] | 61% | 3/3 | 13% | 49% |  |  |  |  |  |  |  |  |
| CCCc1c(OCCCCCCc2cccc(O)c2O)ccc(C(=O)O)c1O [4-[6-(2,3-Dihydroxyphenyl)hexyloxy]-2-hydroxy-3-propylbenzoic acid] | 68% | 4/5 | 8% | 46% |  |  | 42 ± 2% | 67 ± 15% |  |  |  |  |
| CCCc1c(OCCCCCCc2ccc(O)c(O)c2)ccc(C(=O)O)c1O [4-[6-(3,4-dihydroxyphenyl)hexyloxy]-2-hydroxy-3-propylbenzoic acid] | 0% |  |  | 21% |  |  |  |  | 1/5 | 11% |  |  |
| CCCc1c(OCCCc2ccc(O)c(O)c2)ccc(C(=O)O)c1O [4-[3-(3,4-Dihydroxyphenyl)propoxy]-2-hydroxy-3-propylbenzoic acid] | 55% |  |  | 32% |  |  |  | 39 ± 5% |  |  |  |  |
| CCCc1c(OCCCCCCCc2cccc(O)c2O)ccc(C(=O)O)c1O [4-[7-(2,3-dihydroxyphenyl)heptyloxy]-2-hydroxy-3-propylbenzoic acid] | 57% | 3/5 | 18% | 57% |  |  |  |  |  |  |  |  |
| CCCc1c(OCCCCCc2cccc(O)c2O)ccc(C(=O)O)c1O [4-[5-(2,3-Dihydroxyphenyl)pentyloxy]-2-hydroxy-3-propylbenzoic acid] | 63% | 4/5 | 15% | 0% | 96 ± 13% |  |  |  |  |  |  |  |
| CCCc1c(OCCCCCCCCc2cccc(O)c2O)ccc(C(=O)O)c1O [4-[8-(2,3-dihydroxyphenyl)octyloxy]-2-hydroxy-3-propylbenzoic acid] | 66% | 1/5 | 8% | 78% |  |  | 35 ± 7% |  |  |  | 27 ± 3% |  |
| CCCc1c(OCCCCc2cccc(O)c2O)ccc(C(C)=O)c1O [1-[2-Hydroxy-4-[4-(2,3-dihydroxyphenyl)butoxy]-3-propylphenyl]ethanone] | 53% | 1/5 | 12% |  |  |  | 46 ± 7% | 89 ± 11% |  |  |  |  |
| CCCc1c(OCCCCCCc2ccc(C(C)C)c(O)c2O)ccc(C(C)=O)c1O [1-[2-hydroxy-4 [6-[2,3 dihydroxy-4-(1-methylethyl)phenyl]hexyloxy]-3 propylphenyl]ethanone] |  | 2/5 | 11% |  |  |  | 65 ± 10% |  |  |  |  |  |
| CCCc1c(O)c(C(=O)O)cc(Cl)c1OCCCCCCc1cccc(O)c1O [5-Chloro-2-hydroxy-4-[6-(2,3-dihydroxyphenyl]hexyloxy]-3-propylbenzoic acid] |  |  |  | 51% |  |  |  | 44 ± 6% |  |  |  | 45% |
